Results on seven compounds are retold here after paper PMC10818600, “In Silico Design, Synthesis, and Evaluation of Novel Enantiopure Isoxazolidines as Promising Dual Inhibitors of α-Amylase and α-Glucosidase” (Molecules, 2024).

Where “and” joins values, the source holds several entries; their conditions need not be identical. Identical values can stand only once.

Assay type in all cases: biochemical
The target in assay [1] is T1, human pancreatic α-amylase (Homo sapiens, UniProt P04746).
T1 sequence (P04746 16-511): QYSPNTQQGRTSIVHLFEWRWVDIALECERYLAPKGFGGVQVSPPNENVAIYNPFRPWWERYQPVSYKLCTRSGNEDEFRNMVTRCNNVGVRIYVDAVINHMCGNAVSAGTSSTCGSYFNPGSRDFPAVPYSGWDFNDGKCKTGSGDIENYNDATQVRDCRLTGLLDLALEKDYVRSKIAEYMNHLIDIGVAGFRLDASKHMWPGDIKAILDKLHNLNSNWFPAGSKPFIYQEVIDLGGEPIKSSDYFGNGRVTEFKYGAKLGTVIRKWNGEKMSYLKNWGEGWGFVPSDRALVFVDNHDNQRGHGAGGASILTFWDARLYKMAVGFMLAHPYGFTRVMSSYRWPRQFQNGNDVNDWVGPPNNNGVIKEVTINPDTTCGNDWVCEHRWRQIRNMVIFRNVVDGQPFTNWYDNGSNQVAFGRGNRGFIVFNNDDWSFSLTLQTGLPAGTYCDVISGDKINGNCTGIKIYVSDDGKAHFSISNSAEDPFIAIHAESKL
As to the kind of experiment: α-amylase inhibition assay. The conditions noted are these: for IC50: mean ± standard error, triplicates. How it is done: (§1) The inhibitory potential of the synthesized analogs against human pancreatic α-amylase and human lysosomal acid-α-glucosidase enzymes was carried out using the same protocol as described previously with slight modification. […] The percent of inhibition for both enzymes was calculated via the following formula: % inhibition=Abs(blank)−Abs(test compoud)/Abs (blank)×100
(§2) The results were expressed as IC50 (μM), and all the experiments were carried out in triplicates.

For assay [2], the target named is human lysosomal acid-α-glucosidase (Homo sapiens, UniProt P10253). As to the kind of experiment: α-glucosidase inhibition assay. The note with it: for IC50: mean ± standard error, triplicates. How it is done: as §1, §2
A further assay has as its target α-glucosidase (Homo sapiens, UniProt P10253). As to the kind of experiment: enzyme kinetic study, mode of α-glucosidase inhibition (Lineweaver–Burk). How it is done:
(§3) The kinetic studies were carried out based on the above IC50 values. […] A volume of 20 μL was incubated for 15 min at 30 °C using varying concentrations of the inhibitor 5d against α-amylase (0, 5, 25, and 35 μM) and α-glucosidase ([…]) with varying concentrations of inhibitor substrate (starch) in the range 0.3 to 8 mM, whereas concentrations for the inhibitor substrate (p-nitrophenyl-α-D-glucopyranoside, PNPg) were in the range 0.1–1.3 mM, respectively. This was conducted according to the same protocol as previously described, with slight modifications. The type of enzyme inhibition was assessed by preparing Lineweaver–Burk plots of the inverse of the velocities (1/V) versus the inverse of the substrate’s concentration 1/[S] mM^−1, and the change in absorbance was measured spectrophotometrically at 405 nm. The constant of inhibition, Ki, was determined through the secondary plot of the slope versus the inhibitor concentration.

Another assay addresses T2, α-amylase (Homo sapiens, UniProt P04746).
T2 sequence (P04746 16-511): T1 sequence (P04746 16-511)
Kind of assay: enzyme kinetic study, mode of α-amylase inhibition (Lineweaver–Burk). How it is done: as §3

The mark [3] stands for this setting: ratio of IC50 values vs acarbose.

The IC50 is the concentration that inhibits the measured activity by half. The low end stands for higher potency, the high end for lower potency. Consider `COc1cc(C[C@@H]2C[C@@H]3C(=O)N(C)C4(C[C@H](C)CC[C@H]4C(C)C)N3O2)ccc1OCC(=O)NNC(=O)Nc1ccc(F)cc1` (stereo partly drawn) [5g, N-(4-fluorophenyl)-2-(2-(4-(((2S,2′R,3a’R,5R)-2-isopropyl-5,5′-dimethyl-4′-oxotetrahydro-2′H-spiro [cyclohexane-1,6′-imidazo[1,5-b]isoxazol]-2′-yl)methyl)-2-methoxyphenoxy)acetyl)hydrazine-1-carboxamide], for which the results for the concentration for half-maximal inhibition (IC50) in assay [1] and in assay [2] were 134.8 ± 0.411 µM and 170.8 ± 0.358 µM, respectively.
One may read the Ki as the equilibrium dissociation constant of an inhibitor or competing ligand from its target. Consider `Cc1cccc(C[C@@H]2C[C@@H]3C(=O)N(C)C4(C[C@H](C)CC[C@H]4C(C)C)N3O2)c1OCC(=O)NNC(=O)Nc1cccc2ccccc12` (stereo partly drawn) [5d, 2-(2-(2-(((2S,2′R,3a’R,5R)-2-isopropyl-5,5′-dimethyl-4′-oxotetrahydro-2′H-spiro[cyclohexane-1,6′-imidazo[1,5-b]isoxazol]-2′-yl)methyl)-6-methylphenoxy)acetyl)-N-(naphthalen-1-yl)hydrazine-1-carboxamide], for which the IC50 in assay [1] turned out to be 53.03 ± 0.106 µM; in assay [2], 94.33 ± 0.282 µM. The “α-amylase inhibitory activity, fold higher than that of acarbose” value in assay [1] (setting [3]) was 5.6 fold and 5.59 fold. The “mode of α-glucosidase inhibition” value on α-glucosidase (Lineweaver–Burk plot: Km increases, Vmax constant) is “competitive”. Also, the Ki on α-glucosidase (estimated from slope vs inhibitor concentration, substrate PNPg, read-out: inhibition constant Ki, α-glucosidase) was 89.5 µM; at α-amylase (estimated from secondary re-plot of Lineweaver–Burk plots, substrate starch, read-out: inhibition constant Ki, α-amylase), 31.9 µM. On α-amylase (Lineweaver–Burk plot: Vmax unchanged, Km increased), the “mode of α-amylase inhibition” value is listed as “competitive”. In addition, the “α-glucosidase inhibitory activity, fold higher than that of acarbose” value in assay [2] (setting [3]) is 8.3 fold and 8.27 fold.
On to `Cc1cccc(C[C@@H]2C[C@@H]3C(=O)N(C)C4(C[C@H](C)CC[C@H]4C(C)C)N3O2)c1OCC(=O)NNC(=O)Nc1ccc(Cl)c(C(F)(F)F)c1` (stereo partly drawn) [5b, N-(3-trifluoromethyl-4-chlorophenyl)-2-(2-(2-(((2S,2′R,3a’R,5R)-2-isopropyl-5,5′-dimethyl-4′-oxotetrahydro-2′H-spiro[cyclohexane-1,6′-imidazo[1,5-b]isoxazol]-2′-yl)methyl)-6-methylphenoxy)acetyl)hydrazine-1-carboxamide], for which the results for the IC50 in assay [1] and in assay [2] were 67.4 ± 0.202 µM and 118.9 ± 0.325 µM, respectively.
For `Cc1cccc(C[C@@H]2C[C@@H]3C(=O)N(C)C4(C[C@H](C)CC[C@H]4C(C)C)N3O2)c1OCC(=O)NNC(=O)Nc1ccc(F)cc1` (stereo partly drawn) [5a, N-(4-fluorophenyl)-2-(2-(2-(((2S,2′R,3a’R,5R)-2-isopropyl-5,5′-dimethyl-4′-oxotetrahydro-2′H-spiro[cyclohexane-1,6′-imidazo[1,5-b]isoxazol]-2′-yl)methyl)-6-methylphenoxy)acetyl)hydrazine-1-carboxamide], in that order: 120.3 ± 0.306 µM and 152.3 ± 0.367 µM.
For `Cc1cccc(C[C@@H]2C[C@@H]3C(=O)N(C)C4(C[C@H](C)CC[C@H]4C(C)C)N3O2)c1OCC(=O)NNC(=O)Nc1cccc(Cl)c1` (stereo partly drawn) [5c, N-(3-chlorophenyl)-2-(2-(2-(((2S,2′R,3a’R,5R)-2-isopropyl-5,5′-dimethyl-4′-oxotetrahydro-2′H-spiro[cyclohexane-1,6′-imidazo[1,5-b]isoxazol]-2′-yl)methyl)-6-methylphenoxy)acetyl)hydrazine-1-carboxamide], the IC50 in assay [1] was 92.28 ± 0.276 µM; in assay [2], 120.9 ± 0.333 µM.
In the case of `Cc1cccc(C[C@@H]2C[C@@H]3C(=O)N(C)C4(C[C@H](C)CC[C@H]4C(C)C)N3O2)c1OCC(=O)NNC(=O)Nc1ccc(Cl)cc1` (stereo partly drawn) [5e, N-(4-chlorophenyl)-2-(2-(2-(((2S,2′R,3a’R,5R)-2-isopropyl-5,5′-dimethyl-4′-oxotetrahydro-2′H-spiro[cyclohexane-1,6′-imidazo[1,5-b]isoxazol]-2′-yl)methyl)-6-methylphenoxy)acetyl)hydrazine-1-carboxamide], the IC50 worked out at 232.8 ± 0.517 µM in assay [1] and 258.7 ± 0.521 µM in assay [2].
For `COc1cc(C[C@@H]2C[C@@H]3C(=O)N(C)C4(C[C@H](C)CC[C@H]4C(C)C)N3O2)ccc1OCC(=O)NNC(=O)Nc1ccc(Br)cc1` (stereo partly drawn) [5f, N-(4-bromophenyl)-2-(2-(4-(((2S,2′R, 3a’R, 5R)-2-isopropyl-5,5′-dimethyl-4′-oxotetrahydro-2′H-spiro[cyclohexane-1,6′-imidazo[1,5-b]isoxazol]-2′-yl)methyl)-2-methoxyphenoxy)acetyl)hydrazine-1-carboxamide] the same measures were 183.8 ± 0.498 µM and 204.6 ± 0.41 µM.
